Consider 16 compounds from ChEMBL document CHEMBL3632595, “Constituents of the seeds of Cassia tora with inhibitory activity on soluble expoxide hydrolease” (Bioorg Med Chem Lett, 2015).

Structures are written as SMILES. pIC50, pKi: −log10 of the molar value.

The target in experiment [1] is T1, Bifunctional epoxide hydrolase 2 (Homo sapiens) (UniProt P34913).
T1 sequence (whole entry): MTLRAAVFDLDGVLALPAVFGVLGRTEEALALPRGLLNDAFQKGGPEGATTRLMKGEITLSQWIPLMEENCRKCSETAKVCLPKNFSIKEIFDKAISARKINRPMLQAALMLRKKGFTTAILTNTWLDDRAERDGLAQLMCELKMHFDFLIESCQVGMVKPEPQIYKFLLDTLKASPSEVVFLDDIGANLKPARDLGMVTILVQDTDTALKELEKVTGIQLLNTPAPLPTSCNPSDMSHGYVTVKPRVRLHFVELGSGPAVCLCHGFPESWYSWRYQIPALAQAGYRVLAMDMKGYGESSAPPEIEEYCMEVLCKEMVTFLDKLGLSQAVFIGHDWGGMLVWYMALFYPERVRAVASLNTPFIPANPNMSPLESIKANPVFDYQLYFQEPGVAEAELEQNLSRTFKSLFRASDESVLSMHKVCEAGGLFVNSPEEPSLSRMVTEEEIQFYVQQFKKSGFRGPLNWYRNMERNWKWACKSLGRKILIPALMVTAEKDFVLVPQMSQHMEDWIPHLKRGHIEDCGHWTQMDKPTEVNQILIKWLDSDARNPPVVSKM
The conditions noted are these: at 50 µM.
Description: Inhibition of sEH (unknown origin) assessed as 6-methoxy-2-naphthaldehyde formation at 50 uM by fluorometry assay using 40 uM cyano-(6-methoxy-naphthalen-2-yl)-methyl ester as substrate

Experiment [2] addresses T2, Bifunctional epoxide hydrolase 2 (Homo sapiens, UniProt P34913).
T2 sequence (P34913 whole entry): T1 sequence (whole entry)
The experiment is described as follows: Inhibition of sEH (unknown origin) assessed as 6-methoxy-2-naphthaldehyde formation by fluorometry assay using 40 uM cyano-(6-methoxy-naphthalen-2-yl)-methyl ester as substrate.

The target in experiment [3] is T2, Bifunctional epoxide hydrolase 2. As to the kind of experiment: Reversible-uncompetitive inhibition of sEH (unknown origin) by Lineweaver-Burk plot.

Regarding `COc1c(O[C@@H]2O[C@H](CO)[C@@H](O)[C@H](O)[C@H]2O)cc2c(c1O)C(=O)c1c(cc(C)c(O)c1OC)C2=O`, the inhibition in experiment [1] turned out to be 57.7%. In experiment [2], the pIC50 was 4.48.
The compound `COc1cc(O[C@@H]2O[C@H](CO[C@@H]3O[C@H](CO)[C@@H](O)[C@H](O)[C@H]3O)[C@@H](O)[C@H](O)[C@H]2O)c2c(c1)C(=O)c1cc(C)cc(O)c1C2=O` yielded an inhibition in experiment [1] of 51%. Further, in experiment [2], the pIC50 was 4.39.
As to `COc1cc(O[C@@H]2O[C@H](CO)[C@@H](O)[C@H](O)[C@H]2O)c2c(OC)c(C(C)=O)c(O[C@H]3OC[C@@](O)(CO)[C@@H]3O)cc2c1`, the inhibition in experiment [1] turned out to be 91.6%. In addition, the negative logarithm of the IC50 (pIC50) in experiment [2] is 5.66. The compound further showed a negative logarithm of the Ki (pKi) in experiment [3] of 6.22.
As for `COc1cc(O[C@@H]2O[C@H](CO[C@@H]3O[C@H](CO)[C@@H](O)[C@H](O)[C@H]3O)[C@@H](O)[C@H](O)[C@H]2O)c2c(O)c3c(=O)oc(C)cc3cc2c1`, in experiment [1], the inhibition amounted to 67.6%. Further, in experiment [2], the pIC50 was 4.70.
The matching figures for `COc1ccc2c(c1O)C(=O)c1c(cc(C)c(O)c1OC)C2=O`: 54.2% and 4.45.
`Cc1cc(O)c2c(c1)C(=O)c1cccc(O)c1C2=O`: the inhibition in experiment [1] was 38.1%.
`Cc1cc(O)c2c(c1)C(=O)c1cc(O)cc(O)c1C2=O` [EMODIN] returned an inhibition in experiment [1] of 56.4%. In experiment [2], the pIC50 is 4.44.
Regarding `COc1c(O)c(C)cc2c1C(=O)c1c(O)cccc1C2=O`, the inhibition in experiment [1] stood at 2.6%.
With `COc1cc(O[C@@H]2O[C@H](CO)[C@@H](O)[C@H](O)[C@H]2O)c2c(O)c3c(=O)cc(C)oc3cc2c1`, the inhibition in experiment [1] turned out to be 38.1%.
In turn, `COc1cc2c(c(O)c1OC)C(=O)c1c(cc(C)c(O)c1OC)C2=O` returned an inhibition in experiment [1] of 55.1%. Also, the pIC50 in experiment [2] was 4.58.
In experiment [1], `COc1cc2c(c(OC)c1OC)C(=O)c1c(cc(C)c(O[C@@H]3O[C@H](CO)[C@@H](O)[C@H](O)[C@H]3O)c1OC)C2=O` came in with an inhibition of 28.6%.
`COc1c(O)cc2c(c1O)C(=O)c1c(cc(C)c(O)c1OC)C2=O` returned an inhibition in experiment [1] of 0%.
Same read-out and setting: then `COc1cc(O)c2c(c1)C(=O)c1cc(C)cc(O)c1C2=O`, with 27.1%.
Compound `COc1c(O[C@@H]2O[C@H](CO)[C@@H](O)[C@H](O)[C@H]2O)c(C)cc2c1C(=O)c1c(O)cccc1C2=O` had an inhibition in experiment [1] of 50.6%. Also, the pIC50 in experiment [2] is 4.61.
The compound `COc1cc(O[C@@H]2O[C@H](CO[C@@H]3O[C@H](CO)[C@@H](O)[C@H](O)[C@H]3O)[C@@H](O)[C@H](O)[C@H]2O)c2c(O)c3c(=O)cc(C)oc3cc2c1` displayed an inhibition in experiment [1] of 50.9%. Moreover, in experiment [2], the negative-log IC50 (pIC50) was 4.43.
The corresponding values for `COc1cc2c(c(OC)c1OC)C(=O)c1c(cc(C)c(O)c1OC)C2=O` [CHRYSOOBTUSIN] are 59.8% and 4.58.

What is called inhibition is the drop in the measured response relative to a control, in per cent. A lower inhibition goes with little suppression. For orientation: pIC50 means the IC50 on a negative log10 scale, so that one unit is a factor of ten. The term pKi denotes −log10 of the Ki, conventionally taken in molar units.
